Laboratory results as given in US9255094B2, “Pyrido[4,3-B]indoles and methods of use” (Medivation Technologies, Inc., priority 2009, dated 2016).

Legend:
[1] = biological target: T1, human recombinant adrenergic α2C receptor (Homo sapiens, UniProt P18825); assay: Adrenergic α2C radioligand binding assay ([3H]MK-912); details: compound at 0.1 μM; 1 nM [3H]MK-912; insect Sf9 cells; read-out: Percent Inhibition of ligand binding, Adrenergic (0.1 μM) a2C
T1 construct: expressed in transfected cells; host or cells: insect Sf9 cells
T1 sequence (P18825 1-462): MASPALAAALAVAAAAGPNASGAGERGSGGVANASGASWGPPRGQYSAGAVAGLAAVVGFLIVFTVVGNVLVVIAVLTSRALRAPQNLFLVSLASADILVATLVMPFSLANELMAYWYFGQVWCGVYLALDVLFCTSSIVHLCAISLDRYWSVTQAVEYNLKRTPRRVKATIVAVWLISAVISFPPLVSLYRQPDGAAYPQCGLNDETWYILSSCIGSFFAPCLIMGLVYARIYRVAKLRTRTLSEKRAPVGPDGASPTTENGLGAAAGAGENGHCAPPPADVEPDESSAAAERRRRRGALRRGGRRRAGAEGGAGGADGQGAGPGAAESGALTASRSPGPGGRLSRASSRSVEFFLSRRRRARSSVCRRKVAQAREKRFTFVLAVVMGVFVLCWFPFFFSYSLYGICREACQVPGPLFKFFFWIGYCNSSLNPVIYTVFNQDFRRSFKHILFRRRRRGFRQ
Experimental: To evaluate in radioligand binding assays the activity of compounds of the invention, human recombinant adrenergic α2C receptor expressed in insect Sf9 cells (Uhlen S et al. J. Pharmacol. Exp. Ther. 271:1558, 1994) in a modified Tris-HCl buffer (50 mM Tris-HCl, pH 7.4, 12.5 mM MgCl2, 2 mM EDTA) is used. Compounds of the invention are incubated with 1 nM [^3H]MK-912 for 60 min at 25° C. Non-specific binding is estimated in the presence of 10 μM WB-4101. Receptor proteins are filtered and washed, the filters are then counted to determine [^3H]MK-912 specifically bound. Compounds are screened at 1 μM or lower, using 1% DMSO as vehicle. Compounds of the invention are tested in this biochemical assay and percent inhibition of specific binding is determined.

[2] = biological target: T2, human recombinant adrenergic α2B receptor (Homo sapiens, UniProt P18089); assay: Adrenergic α2B radioligand binding assay ([3H]Rauwolscine); details: 2.5 nM [3H]Rauwolscine, CHO-K1 cells; for inhibition at 0.1 µM: compound at 0.1 μM, read-out: Percent Inhibition of ligand binding, Adrenergic (0.1 μM) a2B; for inhibition at 1 µM: compound at 1 μM, read-out: Percent Inhibition of ligand binding, Adrenergic (1 μM) a2B
T2 construct: expressed in transfected cells; host or cells: Chinese hamster ovary (CHO-K1) cells
T2 sequence (P18089 1-450): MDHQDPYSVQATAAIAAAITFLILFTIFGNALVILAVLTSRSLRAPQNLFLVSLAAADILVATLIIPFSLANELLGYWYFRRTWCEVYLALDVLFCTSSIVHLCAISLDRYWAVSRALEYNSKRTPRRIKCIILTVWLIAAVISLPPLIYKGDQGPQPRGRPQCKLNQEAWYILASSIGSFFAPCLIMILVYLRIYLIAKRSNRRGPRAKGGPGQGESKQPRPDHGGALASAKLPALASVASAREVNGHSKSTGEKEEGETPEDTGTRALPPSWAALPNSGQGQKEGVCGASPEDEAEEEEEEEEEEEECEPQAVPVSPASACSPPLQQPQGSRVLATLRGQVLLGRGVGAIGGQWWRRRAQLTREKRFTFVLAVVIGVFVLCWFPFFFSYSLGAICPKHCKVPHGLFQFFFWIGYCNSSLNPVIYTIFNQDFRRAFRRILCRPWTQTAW
Experimental: To evaluate in radioligand binding assays the activity of compounds of the invention, human recombinant adrenergic α2B receptor expressed in Chinese hamster ovary (CHO-K1) cells (Uhlen S et al., Eur. J. Pharmacol. 343(1):93, 1998) in a modified Tris-HCl buffer (50 mM Tris-HCl, pH 7.4, 12.5 mM MgCl2, 1 mM EDTA, 0.2% BSA) was used. Compounds of the invention were incubated with 2.5 nM [^3H]Rauwolscine for 60 min at 25° C. Non-specific binding was estimated in the presence of 10 μM Prozosin. Receptor proteins were filtered and washed, the filters were then counted to determine [^3H]Rauwolscine specifically bound.

[3] = biological target: human recombinant histamine H1 receptor (Homo sapiens, UniProt P35367); assay: Histamine H1 radioligand binding assay ([3H]Pyrilamine); details: receptor expressed in CHO cells; for inhibition at 1 µM: compound at 1 μM; for inhibition at 0.1 µM: compound at 0.1 μM
How it was run: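 Membranes from CHO cells expressing the receptor, in 50 mM Tris-HCl pH 7.4 with 2 mM MgCl2, 100 mM NaCl and 250 mM sucrose, incubated with 1.2 nM [3H]pyrilamine for 180 min at 25° C; nonspecific binding defined with 1 μM pyrilamine.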

[4] = biological target: T3, human recombinant serotonin (5-Hydroxytryptamine) 5-HT6 receptor (Homo sapiens, UniProt P50406); assay: Serotonin 5-HT6 radioligand binding assay ([3H]LSD); details: HeLa cells; for inhibition at 1 µM: compound at 1 μM, read-out: Percent Inhibition of ligand binding, Serotonin (1 μM) 5-HT6; for inhibition at 0.1 µM: compound at 0.1 μM, read-out: Percent Inhibition of ligand binding, Serotonin (0.1 μM) 5-HT6
T3 construct: expressed in transfected cells; host or cells: human HeLa cells
Experimental: Compounds of the invention were incubated with 1.5 nM [3H]Lysergic acid diethylamide (LSD) for 120 min at 37° C. […] Receptor proteins were filtered and washed, the filters were then counted to determine [3H]LSD specifically bound. Compounds were screened at 1 μM or lower, using 1% DMSO as vehicle. Biochemical assay results are presented as the percent inhibition of specific binding in Table 4.

[5] = biological target: human recombinant dopamine D2L receptor (Homo sapiens, UniProt P14416); assay: Dopamine D2L radioligand binding assay ([3H]Spiperone); details: compound at 1 μM, 0.16 nM [3H]Spiperone, CHO cells, read-out: Percent Inhibition of ligand binding, Dopamine (1μM)
How it was run: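 Test compounds at 1 μM or lower (1% DMSO vehicle) incubated with 0.16 nM [3H]Spiperone for 120 min at 25 °C; nonspecific binding defined with 10 μM haloperidol. Filtration and counting of bound radioligand; values given as percent inhibition of specific binding.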

T3 sequence (P50406 whole entry): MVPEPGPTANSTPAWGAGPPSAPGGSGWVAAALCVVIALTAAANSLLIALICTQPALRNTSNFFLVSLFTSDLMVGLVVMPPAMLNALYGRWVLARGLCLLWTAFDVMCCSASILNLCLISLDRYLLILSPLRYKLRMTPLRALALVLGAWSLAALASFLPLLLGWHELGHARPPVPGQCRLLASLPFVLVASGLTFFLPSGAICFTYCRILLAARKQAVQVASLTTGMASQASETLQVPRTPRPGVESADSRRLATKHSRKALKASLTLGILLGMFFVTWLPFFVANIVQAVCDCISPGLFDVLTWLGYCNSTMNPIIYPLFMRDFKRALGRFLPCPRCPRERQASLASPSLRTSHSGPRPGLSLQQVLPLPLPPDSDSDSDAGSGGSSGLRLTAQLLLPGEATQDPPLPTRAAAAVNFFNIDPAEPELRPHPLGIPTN
Chain of human recombinant histamine H1 receptor (P35367 whole entry): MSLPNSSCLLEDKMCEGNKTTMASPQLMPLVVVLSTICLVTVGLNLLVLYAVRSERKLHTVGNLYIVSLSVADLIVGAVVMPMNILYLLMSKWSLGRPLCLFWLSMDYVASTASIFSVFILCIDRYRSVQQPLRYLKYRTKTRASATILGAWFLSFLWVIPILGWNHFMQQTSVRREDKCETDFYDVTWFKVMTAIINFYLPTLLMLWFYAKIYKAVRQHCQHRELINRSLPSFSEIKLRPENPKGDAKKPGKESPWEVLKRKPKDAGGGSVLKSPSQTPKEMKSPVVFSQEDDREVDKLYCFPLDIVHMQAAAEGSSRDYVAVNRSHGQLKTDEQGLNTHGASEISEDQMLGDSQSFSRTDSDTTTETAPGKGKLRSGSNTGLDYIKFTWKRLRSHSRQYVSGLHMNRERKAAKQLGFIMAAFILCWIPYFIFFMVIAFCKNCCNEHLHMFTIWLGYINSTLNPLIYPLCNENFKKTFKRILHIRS
Chain of human recombinant dopamine D2L receptor (P14416 whole entry): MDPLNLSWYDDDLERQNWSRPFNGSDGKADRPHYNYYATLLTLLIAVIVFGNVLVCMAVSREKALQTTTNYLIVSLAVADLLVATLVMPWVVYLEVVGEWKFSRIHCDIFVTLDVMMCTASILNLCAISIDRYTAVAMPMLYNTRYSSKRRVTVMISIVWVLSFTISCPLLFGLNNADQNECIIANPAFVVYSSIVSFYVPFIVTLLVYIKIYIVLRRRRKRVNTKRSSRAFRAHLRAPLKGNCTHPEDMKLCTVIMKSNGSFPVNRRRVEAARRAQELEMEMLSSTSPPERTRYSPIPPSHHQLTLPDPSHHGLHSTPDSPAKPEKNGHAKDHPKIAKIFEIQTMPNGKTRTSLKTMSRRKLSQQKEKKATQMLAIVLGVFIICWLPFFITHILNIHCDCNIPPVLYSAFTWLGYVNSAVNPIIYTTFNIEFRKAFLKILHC

Structure (SMILES)	inhibition at 0.1 µM [1]	inhibition at 0.1 µM [2]	inhibition at 1 µM [2]	inhibition at 1 µM [3]	inhibition at 1 µM [4]	inhibition at 1 µM [5]	inhibition at 0.1 µM [4]	inhibition at 0.1 µM [3]
Cc1ccc2c(c1)c1c(n2CC(O)c2ccncc2)CCN(C)C1 (stereo not drawn) [Compound 1-8, 2-(2,8-dimethyl-3,4-dihydro-1H-pyrido[4,3-b]indol-5(2H)-yl)-1-(pyridin-4-yl)ethanol]	5%							
CN1CCc2c(c3cc(Cl)ccc3n2CC(O)c2ccncc2)C1 (stereo not drawn) [Compound 1-11, 2-(8-chloro-2-methyl-3,4-dihydro-1H-pyrido[4,3-b]indol-5(2H)-yl)-1-(pyridin-4-yl)ethanol]	26%							
Cc1ccc2c(c1)c1c(n2CC(C)(O)c2ccc(O)cc2)CCN(C)C1 (stereo not drawn) [Compound 1-15, 4-(1-(2,8-dimethyl-3,4-dihydro-1H-pyrido[4,3-b]indol-5(2H)-yl)-2-hydroxypropan-2-yl)phenol]	5%	103%						
CN1CCc2c(c3cc(Cl)c(Cl)cc3n2CC(C)(O)c2ccncc2)C1 (stereo not drawn) [Compound 1-17, 1-(7,8-dichloro-2-methyl-3,4-dihydro-1H-pyrido[4,3-b]indol-5(2H)-yl)-2-(pyridin-4-yl)propan-2-ol]	39%	64%						
COc1ccc([C@](C)(O)Cn2c3c(c4cc(C)ccc42)CN(C)CC3)cc1 [Compound 1-20, (S)-1-(2,8-Dimethyl-3,4-dihydro-1H-pyrido[4,3-b]indol-5(2H)-yl)-2-(4-methoxyphenyl)propan-2-ol]	28%	79%						
Cc1ccc2c(c1)c1c(n2CCc2ccc(C)nc2)CCN(CCC#N)C1 [Compound 1-34, 3-(8-methyl-5-(2-(6-methylpyridin-3-yl)ethyl)-3,4-dihydro-1H-pyrido[4,3-b]indol-2(5H)-yl)propanenitrile]			23%	65%	6%	-4%		
Cc1ccc2c(c1)c1c(n2CC(=O)c2ccccc2)CCN(C)C1 [Compound 1-35, 2-(2,8-dimethyl-3,4-dihydro-1H-pyrido[4,3-b]indol-5(2H)-yl)-1-phenylethanone]			59%	52%	14%	4%		
CN1CCc2c(c3cc(Cl)ccc3n2CC(=O)c2ccccc2)C1 [Compound 1-36, 2-(8-chloro-2-methyl-3,4-dihydro-1H-pyrido[4,3-b]indol-5(2H)-yl)-1-phenylethanone]			92%	84%	71%	73%		
CN1CCc2c(c3cc(Cl)ccc3n2CC(=O)c2ccc(F)cc2)C1 [Compound 1-37, 2-(8-chloro-2-methyl-3,4-dihydro-1H-pyrido[4,3-b]indol-5(2H)-yl)-1-(4-fluorophenyl)ethanone]			87%	83%	71%	85%		
CN1CCc2c(c3cc(Cl)ccc3n2CC(=O)c2ccc(Cl)cc2)C1 [Compound 1-38, 2-(8-chloro-2-methyl-3,4-dihydro-1H-pyrido[4,3-b]indol-5(2H)-yl)-1-(4-chlorophenyl)ethanone]			92%	91%	57%	44%		
Cc1ccc2c(c1)c1c(n2CC(=O)c2ccc(F)cc2)CCN(C)C1 [Compound 1-39, 2-(2,8-dimethyl-3,4-dihydro-1H-pyrido[4,3-b]indol-5(2H)-yl)-1-(4-fluorophenyl)ethanone]			92%	86%	62%	57%		
Cc1ccc2c(c1)c1c(n2CCc2ccc(CCCN)nc2)CCN(C)C1 [Compound 1-40, 3-(5-(2-(2,8-dimethyl-3,4-dihydro-1H-pyrido[4,3-b]indol-5(2H)-yl)ethyl)pyridin-2-yl)propan-1-amine]			63%	81%	24%	3%		
Cc1ccc2c(c1)c1c(n2CCc2ccc(C(F)(F)F)nc2)CCNC1 [Compound 1-41, 8-methyl-5-(2-(6-(trifluoromethyl)pyridin-3-yl)ethyl)-2,3,4,5-tetrahydro-1H-pyrido[4,3-b]indole]			89%	72%	14%	-8%		
Cc1ccc2c(c1)c1c(n2CCc2ccc(C)nc2)CCN(CCCO)C1 [Compound 1-42, 3-(8-methyl-5-(2-(6-methylpyridin-3-yl)ethyl)-3,4-dihydro-1H-pyrido[4,3-b]indole-2(5H)-yl)propan-1-ol]			39%	93%	43%	11%		
Cc1ccc2c(c1)c1c(n2CC(C)c2ccncc2)CCN(C)C1 (stereo not drawn) [Compound 1-46, 2,8-dimethyl-5-(2-(pyridin-4-yl)propyl)-2,3,4,5-tetrahydro-1H-pyrido[4,3-b]indole]	22%			90%		37%	45%	
Cc1ccc2c(c1)c1c(n2CC(C)(C)c2ccncc2)CCN(C)C1 [Compound 1-49, 2,8-dimethyl-5-(2-methyl-2-(pyridin-4-yl)propyl)-2,3,4,5-tetrahydro-1H-pyrido[4,3-b]indole]	43%			94%		54%	38%	
CC[C@@](O)(Cn1c2c(c3cc(C)ccc31)CN(C)CC2)c1ccncc1 [Compound 1-62, (S)-1-(2,8-Dimethyl-3,4-dihydro-1H-pyrido[4,3-b]indol-5(2H)-yl)-2-(pyridine-4-yl)butan-2-ol]	-5%					9%	28%	3%
CC[C@@](O)(Cn1c2c(c3cc(C)ccc31)CN(C)CC2)c1ccc(F)cc1 [Compound 1-66, (S)-1-(2,8-dimethyl-3,4-dihydro-1H-pyrido[4,3-b]indol-5(2H)-yl)-2-(4-fluorophenyl)butan-2-ol]	18%					6%	72%	-12%
